{"source": "patent US20090170758A1", "about": "“COMPOSITIONS COMPRISING PULMONARY SURFACTANTS AND A POLYMYXIN HAVING IMPROVED SURFACE PROPERTIES” (Chiesi Farmaceutici S.p.A., priority 2002, published 2009)", "experiment": "Spreading experiments on a modified Wilhelmy balance", "type": "physicochemical", "conditions": "Curosurf diluted to 20 mg/ml, 10 microl", "description": "Experiments were performed at 37° C. using a modified Wilhelmy balance with a surface area of 20 cm^2. Standard amounts of Curosurf at various concentrations (10-80 mg/ml) were applied onto a hypophase of saline, approximately 40 mm from the dipping plate. In some experiments, CaCl2 (2 mM), dextran (30 mg/ml), or polymyxin B (2% on the weight of the surfactant, i.e. 0.4 mg/ml) was added to diluted surfactant material (20 mg/ml). The effect of albumin at low concentration (0.1 mg/ml) added to the hypophase was also investigated. Surface tension, measured 1 sec after administration of the sample was used as a parameter combining spreading and film formation by adsorption from the hypophase.", "key": {"[1]": {"conditions": "agent added to surfactant (CaCl2 2 mM, dextran 30 mg/ml, polymyxin B 2% = 0.4 mg/ml), no albumin"}, "[2]": {"conditions": "agent added to surfactant, albumin 0.1 mg/ml added to the hypophase"}}}
{"molecule": "polymyxin B", "values": [{"measurement": "Surface tension at 1 sec (mN/m)", "setting": "[1]", "result": 28, "unit": "mN/m"}, {"measurement": "Surface tension at 1 sec (mN/m)", "setting": "[2]", "result": 45, "unit": "mN/m"}]}
{"molecule": "[Ca+2].[Cl-].[Cl-]", "note": "[CaCl2]", "values": [{"measurement": "Surface tension at 1 sec (mN/m)", "setting": "[1]", "result": 52, "unit": "mN/m"}, {"measurement": "Surface tension at 1 sec (mN/m)", "setting": "[2]", "result": 70, "unit": "mN/m"}]}
